Measured values from patent US4877881A, “Process of preparing pyrazoles, isoxazoles and analogs thereof having activity as 5-lipoxygenase inhibitors” (Warner-Lambert Company, priority 1988, dated 1989).

Assays:
5-lipoxygenase = target: T1, 5-lipoxygenase (Homo sapiens, UniProt P09917); assay: 5-Lipoxygenase Assay Using Isolated Human Leukocytes (5LOA2), 5-HETE formation; format: cell-based; details: inhibition of 5-HETE formation, arachidonic acid 20 μM, A23187 10 μM, read-out: 5-LO(IC50 in μM)
T1 construct: The formation of 5-HETE in human leukocytes is considered a measure of 5-lipoxygenase activity; endogenous in cells; host or cells: leukocytes isolated from fresh human blood
T1 sequence (P09917 1-674): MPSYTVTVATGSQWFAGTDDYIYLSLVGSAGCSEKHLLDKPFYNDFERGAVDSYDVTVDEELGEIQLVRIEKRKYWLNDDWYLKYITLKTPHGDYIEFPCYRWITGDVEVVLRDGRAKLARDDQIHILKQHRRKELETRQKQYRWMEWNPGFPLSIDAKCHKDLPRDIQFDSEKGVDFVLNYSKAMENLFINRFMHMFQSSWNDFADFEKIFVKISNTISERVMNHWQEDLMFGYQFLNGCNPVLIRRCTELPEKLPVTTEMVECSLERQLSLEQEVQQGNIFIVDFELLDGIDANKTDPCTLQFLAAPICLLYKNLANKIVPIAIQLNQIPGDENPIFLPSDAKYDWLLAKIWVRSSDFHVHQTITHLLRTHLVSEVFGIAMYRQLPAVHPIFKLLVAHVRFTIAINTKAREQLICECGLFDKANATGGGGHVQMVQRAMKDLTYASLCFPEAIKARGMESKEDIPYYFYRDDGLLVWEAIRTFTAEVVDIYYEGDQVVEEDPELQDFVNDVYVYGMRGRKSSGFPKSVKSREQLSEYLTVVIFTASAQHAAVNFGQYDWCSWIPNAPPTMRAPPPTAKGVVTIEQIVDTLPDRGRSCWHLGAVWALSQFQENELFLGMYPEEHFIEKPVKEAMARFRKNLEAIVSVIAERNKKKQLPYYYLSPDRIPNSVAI
Description: 5-Lipoxygenase Assay Using Isolated Human Leukocytes (5LOA2)
The formation of 5-HETE in human leukocytes is considered a measure of 5-lipoxygenase activity. The protocol is described in the following.
Fresh heparinized or EDTA treated human blood is mixed with 6% dextran-3% dextrose in isotonic saline in the ratio 0.25 ml dextran solution per 1.0 ml blood. After mixing the blood is allowed to sit at room temperature for about 90 minutes while the RBC's settle. During this period, the plasma is removed with a plastic pipette to nalgens tubes.
The pellet, consisting of leukocytes and erythrocytes, is treated with 10 ml 0.87% ammonium chloride at room temperature for four minutes, lysing the red cells. At the end of four minutes the cells are diluted with a 2x volume of phosphate buffered saline, pH 7.4, and centrifuged for ten minutes. The cells are washed three times with the phosphate buffered saline. Any of the pelleted cell matter which is not easily resuspended is discarded during the washings--the material contains platelets (12-lipoxygenase activity).
After washing, the cells are resuspended in phosphate buffered saline containing 1.0 mM 'calcium and 0.5 mM magnesium. After counting, the cells are diluted to 1.5-2.0×10^7 leukocytes per milliliter.
To each polypropylene reaction tube is added 0.48 ml leukocytes in Ca-Mg phosphate buffered saline, pH 7.4; 1-5 μl test compound dissolved in DMSO and buffer; or DMSO for control tubes.
The tubes preincubate at 37° C. for five minutes.
The reaction is started by adding 20 μl of the following, 0.5 μl, 20 mM arachidonic acid--final concentration=20 μM; 1 μl, 5 mM calcium ionophore A23187--final concentration=10 μM; and 18.5 μl buffer.
The reaction proceeds for five minutes, then is stopped by adding 0.5 ml, 0.5 mM ice-cold Tris buffer, pH 8.0. The tubes are chilled on ice for ten minutes and then extracted three times with a total of 3.5 ml ethyl acetate (3.0 ml removed).
The tubes can be stored at this point. For extended storage, the tubes should be filled with nitrogen.
The ethyl acetate is evaporated with a Sorvall Speed-Vac. The residue is dissolved in ethanol. The tubes can also be stored at this point at -20° C. under nitrogen.
A portion of the ethanol solution is injected into the HPLC system for 5-HETE quantitation.
Injections are made automatically with a Waters WISP 710B. The pump is a Spectra Physics SP8700. […] An RP C-18 column is used. The solvent system is isocratic; the solvent is 70% methanol and 30% 0.01M sodium acetate, pH 5.7, pumped at 1.0 ml/min. […] Using a 15 cm Alltech Nucleosil C-18 5 μM column provides for a sample turnaround time of about 16 minutes.

cyclooxygenase = target: T2, cyclooxygenase (Rattus norvegicus, UniProt Q63921); assay: ARBC Whole Cell Cyclooxygenase Assay in RBL-1 cells (PGF2α RIA); format: cell-based; details: RBL-1 intact cell cyclooxygenase; A23187 5 μM
T2 construct: RBL-1 intact cell cyclooxygenase IC50 values; endogenous in cells; host or cells: RBL-1 rat basophilic leukemia cells (American Type Culture Collection)
T2 sequence (Q63921 27-602): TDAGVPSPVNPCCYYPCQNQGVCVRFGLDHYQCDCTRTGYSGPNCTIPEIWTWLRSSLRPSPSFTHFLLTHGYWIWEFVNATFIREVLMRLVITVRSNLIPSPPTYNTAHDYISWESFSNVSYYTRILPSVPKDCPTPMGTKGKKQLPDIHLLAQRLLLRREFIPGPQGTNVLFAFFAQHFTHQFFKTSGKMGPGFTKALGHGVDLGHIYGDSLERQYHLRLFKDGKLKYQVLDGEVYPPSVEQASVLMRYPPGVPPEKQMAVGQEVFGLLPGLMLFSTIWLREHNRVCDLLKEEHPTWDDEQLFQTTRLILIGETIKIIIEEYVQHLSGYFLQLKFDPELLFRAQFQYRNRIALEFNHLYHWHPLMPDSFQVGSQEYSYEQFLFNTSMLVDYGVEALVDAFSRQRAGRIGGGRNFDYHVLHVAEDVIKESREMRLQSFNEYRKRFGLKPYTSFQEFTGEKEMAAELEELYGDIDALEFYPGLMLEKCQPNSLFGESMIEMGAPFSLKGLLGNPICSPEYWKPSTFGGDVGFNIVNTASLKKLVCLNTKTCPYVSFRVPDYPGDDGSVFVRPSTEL
Description: ARBL/ARBC Whole Cell 5-Lipoxygenase and Cyclooxygenase Assays
The rat basophilic leukemia cell line (RBL-1) was obtained from the American Type Culture Collection (Rockville, Md.).
Radioimmuno assay (RIA) kits of LTB4 and PGF2α were obtained from Amersham (Arlington Heights, Ill.) and Seragen (Boston, Mass.) respectively.
All tissue culture media were obtained from GIBO (Gran Island, N.Y.).
RBL-1 cells were grown in culture (suspension) in Eagle's minimum essential medium supplemented with 12% fetal bovine serum and 1:100 antibiotic-antimycotic mixture at 37° C. in an incubator supplied with air-5% carbon dioxide. Cells were harvested by centrifugation. They were washed with cold phosphate buffered saline pH 7.4 (PBS; NaCl, 7.1 g; Na2 HOP4, 1.15 g; KH2 PO4, 0.2 g; and KCl, 0.2 g/L). […] Calcium ionophore A23187 (5 μM) was added and cells were incubated for seven minutes at 37° C. The reaction was stopped by chilling the tubes in ice for ten minutes. Cells were separated by centrifugation and the supernatant was stored at -20°. Aliquots (100 μl) were analyzed for LTB4 and PGF2α using radioimmuno assay kits as provided by the supplier.

IC50 (5-lipoxygenase) [µM] | IC50 (cyclooxygenase) [µM] | SMILES
5.5 | 6.8 | Cc1cc(C=Cc2ccc(O)c(Cl)c2)n[nH]1 [Example 7, 3-[β-(4'-Hydroxy-3'-chlorophenyl)ethenyl]-5-methylpyrazole]
7.1 | 13 | COc1cc(C=Cc2cc(C)n[nH]2)ccc1O [Example 5, 3-[β-(4'-Hydroxy-3'-methoxyphenyl)ethenyl]-5-methylpyrazole]
1 | 2.5 | COc1cc(C=Cc2cc(C=Cc3ccc(O)c(OC)c3)[nH]n2)ccc1O [Example 1, 3,5-Bis[β-(4'-hydroxy-3'-methoxyphenyl)ethenyl]pyrazole]
